Results taken from patent publication US4076819A, “Thieno-pyridine derivatives and therapeutic composition containing same” (priority 1975, dated 1978).

How the values were obtained:
[1] = in vivo; details: mouse, mice, intravenous route, calculated by method of Miller and Tainter, read-out: LD50 /24 hrs/kg body weight
[2] = tested on: blood plate aggregation; assay: Inhibiting activity on blood plate aggregation (adenosine diphosphate-induced, turbidimetric assay on plasma of treated rats); type: in vivo; details: Rattus norvegicus, rats administered 100 mg/kg, read-out: percent inhibition on blood plate aggregation
Description: 2. Inhibiting activity on blood plate aggregation
Rat plasma, prepared to contain 600,000±20,000 blood platelets per mm^3 is normally cloudy. Addition of adenosine diphosphate induces blood plate aggregation and, thus, an increase of the light transmission, a phenomenon readily measurable with a spectrophotometer. When the same test is effected with a plasma prepared from the blood of an animal which has been administered 100 mg/kg of a derivative having an inhibiting effect on blood plate aggregation, there is no aggregation of the blood plates and the serum remains cloudy. The turbidimetric assay effected with a spectrophotometer provides a measure of the inhibiting activity on blood plate aggregation of the test derivatives.

[3] = tested on: carrageenin-induced edema; assay: Localized carrageenin-induced edema method (anti-inflammatory action); type: in vivo; details: rats, oral 100 mg/kg given 1 h before, simultaneously with, and 1 h and 2.5 h after carrageenin
Description: (a) Localized carrageenin-induced edema method
A 1% carrageenin solution (1 ml) is injected in the metatarsal flexor muscles of the right hind limb of rats at time 0. The animals of the treated group are additionally administered orally 100 mg/kg of the test derivative, respectively 1 hour prior to and then simultaneously with the phlogogenic agent, and then one hour and 2.5 hours thereafter. The percent anti-inflammatory activity, as a function of time, is determined by measurements effected with a ROCH micrometer at times 0, 1 hour, 2 hours, 3 hours and 5 hours after carrageenin administration.

[4] = tested on: ovalbumin-induced systemic edema; assay: Ovalbumin-induced systemic edema method (anti-inflammatory action); type: in vivo; details: rats, oral 100 mg/kg given 1 h before and simultaneously with ovalbumin
Description: (b) Ovalbumin-induced systemic edema method
Rats are administered a simultaneous intraperitoneal injection of 1 ml ovalbumin and 0.5 ml of a 1% aqueous Evans Blue solution. The animals of the treated group are additionally administered orally 100 mg/kg of the test derivative, one hour prior to ovalbumin administration and simultaneously with said ovalbumin administration. The intensity of the phenomenon thus induced is scored according to a scale from 1 to 5, according to the progress of the inflammatory syndrome. The determinations are effected after 2 hours and after 3 hours. Thus are determined the mean intensity of the edema and the percent decrease of the edema reaction.

Compound | LD50 at 24 h [1] | inhibition at 100 mg/kg [2] | Percent anti-inflammatory activity after 1 hour [3] | Percent anti-inflammatory activity after 2 hours [3] | Percent anti-inflammatory activity after 5 hours [3] | Percent decrease (of the edema reaction) After 2 hours [4] | Percent decrease (of the edema reaction) After 3 hours [4]
CC1c2sccc2C(O)CN1C (centres unmarked) [Derivative 11] | 220 mg/kg |  |  |  |  |  | 
Cc1ccc(S(=O)(=O)N2Cc3sccc3C(O)C2)cc1 (centres unmarked) [Derivative 4, 4-Hydroxy-6-p.toluenesulfonyl-4,5,6,7-tetrahydro-thieno[2,3-c]-pyridine] |  | 92% |  |  |  |  | 
COc1ccc(CN2Cc3sccc3C(OC(C)=O)C2)cc1 (centres unmarked) [Derivative 21] | 245 mg/kg |  |  |  |  |  | 
OC1CN(Cc2ccc(Cl)cc2)Cc2sccc21 (centres unmarked) [Derivative 20] | 110 mg/kg |  |  |  |  |  | 
CN1Cc2sccc2C(O)C1 (centres unmarked) [Derivative 10] | 340 mg/kg |  |  |  |  |  | 
CN1Cc2ccsc2C(O)C1 (centres unmarked) [Derivative 29] | 350 mg/kg | 88% | 45% | 55% | 61% | 49% | 59%
CC(=O)OC1CN(C(=O)C(Cl)Cl)Cc2sccc21 (centres unmarked) [Derivative 25] |  | 84% |  |  |  |  | 
CC(=O)CCN1Cc2ccsc2C(O)C1 (centres unmarked) [Derivative 7, 7-Hydroxy-5-(3-oxo-butyl)-4,5,6,7-tetrahydro-thieno[3,2-c]-pyridine] | 260 mg/kg |  | 42% | 56% | 60% | 41% | 52%
CC(=O)OC1CN(C)Cc2sccc21 (centres unmarked) [Derivative 12] | 260 mg/kg |  | 37% | 50% | 58% | 46% | 59%
O=[N+]([O-])c1ccccc1CN1Cc2sccc2C(O)C1 (centres unmarked) [Derivative 22] |  | 93% |  |  |  |  | 
O=[N+]([O-])c1ccc(CN2Cc3ccsc3C(O)C2)cc1 (centres unmarked) [Derivative 1, 7-Hydroxy-5-p.nitrobenzyl-4,5,6,7-tetrahydro-thieno[3,2-c]-pyridine] | 90 mg/kg |  |  |  |  |  | 
O=[N+]([O-])c1ccc(CN2Cc3sccc3C(O)C2)cc1 (centres unmarked) [Derivative 24] | 150 mg/kg |  |  |  |  |  | 
CC(=O)OC1CN(Cc2ccccc2Cl)Cc2ccsc21 (centres unmarked) [Derivative 8, 7-Acetoxy-5-o-chlorobenzyl-4,5,6,7-tetrahydro-thieno[3,2-c]-pyridine] | 200 mg/kg |  |  |  |  |  | 
O=C(CN1CCCC1)N1Cc2sccc2C(O)C1 (centres unmarked) [Derivative 2, 4-Hydroxy-6-pyrrolidinoacetyl-4,5,6,7-tetrahydro-thieno[2,3-c]-pyridine] | 225 mg/kg |  | 35% | 48% | 55% | 38% | 44%
CNC(=O)OC1CN(C)Cc2sccc21 (centres unmarked) [Derivative 14] | 280 mg/kg |  |  |  |  |  | 
CCCNC(=O)OC1CN(C)Cc2sccc21 (centres unmarked) [Derivative 9, 6-Methyl-4-N-propylcarbamoyloxy-4,5,6,7-tetrahydro-thieno-[2,3-c]-pyridine] | 220 mg/kg | 86% |  |  |  |  | 
COc1cc(C(=O)N2Cc3sccc3C(O)C2)cc(OC)c1OC (centres unmarked) [Derivative 26] |  |  | 36% | 49% | 54% | 51% | 63%
O=C(Nc1ccccc1)N1Cc2sccc2C(O)C1 (centres unmarked) [Derivative 5, 4-Hydroxy-6-N-phenylcarbamoyl-4,5,6,7-tetrahydro-thieno[2,3-c]-pyridine] |  | 89% | 41% | 50% | 55% | 33% | 43%
CC(=O)CCN1Cc2sccc2C(O)C1 (centres unmarked) [Derivative 16] | 250 mg/kg |  |  |  |  |  | 
CC(=O)OC1CN(Cc2ccccc2Cl)Cc2sccc21 (centres unmarked) [Derivative 18] |  | 74% | 34% | 44% | 57% | 42% | 58%
